Literature values in patent publication US20260301880A1, “NOSE-TO-BRAIN PHYSIOLOGICALLY BASED PHARMACOKINETIC MODEL” (APTARGROUP INC., priority 2023, published 2026).

What was measured:
[1] = octanol/water
[2] = not given; remark: listed apart in the source
[3] = literature value, porcine nasal mucosa
[4] = humans
[5] = healthy volunteers
[6] = clinical
[7] = not given; remark: listed apart in the source

SMILES | LogP [1] | pKa (acid) (acid) | pKa (base) (base) | fu - fraction unbound in blood plasma [2] | P - Permeability in the nasal epithelium [3] | PbAb - Permeability-surface area product between brain blood and brain mass [4] [L/h] | oral bioavailability [5] | reported nasal bioavailability [6] [%] | R - Blood/plasma ratio [7]
CN1C[C@H](C(=O)N[C@]2(C)O[C@@]3(O)[C@@H]4CCCN4C(=O)[C@H](Cc4ccccc4)N3C2=O)C[C@@H]2c3cccc4[nH]cc(c34)C[C@H]21 [DHE, dihydroergotamine] | 2 | 9.71 | 8.39 | 0.03 | 1.48 × 10^−7 | – | – | – | –
CC(=O)Nc1ccc(O)cc1 [paracetamol] | – | – | – | – | – | 1.875 | – | – | –
CNS(=O)(=O)Cc1ccc2[nH]cc(CCN(C)C)c2c1 [sumatriptan] | – | – | – | 0.63 | – | – | low | 16 | 1
